Test system: 958667-338-R-J2-PDC tumor spheroids viability
Assay: Anticancer human tumor 958667-338-R-J2-PDC patient-derived colon adenocarcinoma cell line growth inhibition [PI3K]
Conditions: spheroids with HUVEC and MSC; for IC50: curve of first compound; for viability, T/C: stronger effect = lower value
Procedure, shortened: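 Three cell types, namely tumor cells, endothelial cells and mesenchymal stem cells, formed each spheroid. Combinations with four PI3K inhibitors were screened at clinically achievable concentrations decreasing by half-log, and spheroid viability was recorded.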
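Note: spheroids exposed to compounds for seven days before readout.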

With `CC(=O)c1c(C)c2cnc(Nc3ccc(N4CCNCC4)cn3)nc2n(C2CCCC2)c1=O` + CC(Nc1ncnc2nc[nH]c12)c1cc2cccc(Cl)c2c(=O)n1-c1ccccc1 the IC50 (second compound 0.0316 µM) was over 100 nM, the IC50 (second compound 0.1 µM) was over 100 nM and the IC50 (second compound 0.316 µM) was over 100 nM. For the same molecule, the IC50 (second compound 1 µM) was over 100 nM, the IC50 (second compound 3.16 µM) was over 100 nM and the IC50 (second compound 10 µM) was over 100 nM. The viability, T/C (second compound 0.0316 µM, first compound 0.000316 µM) was 106%, the viability, T/C (second compound 0.0316 µM, first compound 0.001 µM) was 101% and the viability, T/C (second compound 0.0316 µM, first compound 0.00316 µM) was 95.3%. The viability, T/C (second compound 0.0316 µM, first compound 0.01 µM) was 117%, the viability, T/C (second compound 0.0316 µM, first compound 0.0316 µM) was 90.2% and the viability, T/C (second compound 0.0316 µM, first compound 0.1 µM) was 91.6%. For the same molecule, the viability, T/C (second compound 0.1 µM, first compound 0.000316 µM) was 117%, the viability, T/C (second compound 0.1 µM, first compound 0.001 µM) was 103% and the viability, T/C (second compound 0.1 µM, first compound 0.00316 µM) was 89.2%. For the same molecule, the viability, T/C (second compound 0.1 µM, first compound 0.01 µM) was 96.8%, the viability, T/C (second compound 0.1 µM, first compound 0.0316 µM) was 105% and the viability, T/C (second compound 0.1 µM, first compound 0.1 µM) was 74.4%. For the same molecule, the viability, T/C (second compound 0.316 µM, first compound 0.000316 µM) was 98.6%, the viability, T/C (second compound 0.316 µM, first compound 0.001 µM) was 89.5% and the viability, T/C (second compound 0.316 µM, first compound 0.00316 µM) was 91.3%. It also gave a viability, T/C (second compound 0.316 µM, first compound 0.01 µM) of 103%, a viability, T/C (second compound 0.316 µM, first compound 0.0316 µM) of 118% and a viability, T/C (second compound 0.316 µM, first compound 0.1 µM) of 83.1%. For the same molecule, the viability, T/C (second compound 1 µM, first compound 0.000316 µM) was 99.3%, the viability, T/C (second compound 1 µM, first compound 0.001 µM) was 126% and the viability, T/C (second compound 1 µM, first compound 0.00316 µM) was 95.4%. It also gave a viability, T/C (second compound 1 µM, first compound 0.01 µM) of 106%, a viability, T/C (second compound 1 µM, first compound 0.0316 µM) of 104% and a viability, T/C (second compound 1 µM, first compound 0.1 µM) of 87.9%. The viability, T/C (second compound 3.16 µM, first compound 0.000316 µM) was 108%, the viability, T/C (second compound 3.16 µM, first compound 0.001 µM) was 71.5% and the viability, T/C (second compound 3.16 µM, first compound 0.00316 µM) was 118%. It also gave a viability, T/C (second compound 3.16 µM, first compound 0.01 µM) of 97.5%, a viability, T/C (second compound 3.16 µM, first compound 0.0316 µM) of 97% and a viability, T/C (second compound 3.16 µM, first compound 0.1 µM) of 95.7%. For the same molecule, the viability, T/C (second compound 10 µM, first compound 0.000316 µM) was 103%, the viability, T/C (second compound 10 µM, first compound 0.001 µM) was 79.5% and the viability, T/C (second compound 10 µM, first compound 0.00316 µM) was 95%. For the same molecule, the viability, T/C (second compound 10 µM, first compound 0.01 µM) was 101%, the viability, T/C (second compound 10 µM, first compound 0.0316 µM) was 90.4% and the viability, T/C (second compound 10 µM, first compound 0.1 µM) was 67.6%.

Molecule `Cn1cnc2c(F)c(Nc3ccc(Br)cc3Cl)c(C(=O)NOCCO)cc21` + Cc1nc(NC(=O)N2CCCC2C(N)=O)sc1-c1ccnc(C(C)(C)C(F)(F)F)c1 has an IC50 (second compound 0.0316 µM) of 413 nM, an IC50 (second compound 0.1 µM) of 328 nM and an IC50 (second compound 0.316 µM) of 108 nM. For the same molecule, the IC50 (second compound 1 µM) was 58.5 nM, the IC50 (second compound 3.16 µM) was 66 nM and the IC50 (second compound 10 µM) was 14.2 nM. For the same molecule, the viability, T/C (second compound 0.0316 µM, first compound 0.00949 µM) was 99.2%, the viability, T/C (second compound 0.0316 µM, first compound 0.03 µM) was 81.9% and the viability, T/C (second compound 0.0316 µM, first compound 0.0949 µM) was 73.6%. The viability, T/C (second compound 0.0316 µM, first compound 0.3 µM) was 56.9%, the viability, T/C (second compound 0.0316 µM, first compound 0.949 µM) was 35.1% and the viability, T/C (second compound 0.0316 µM, first compound 3 µM) was 15.8%. It also gave a viability, T/C (second compound 0.1 µM, first compound 0.00949 µM) of 96.1%, a viability, T/C (second compound 0.1 µM, first compound 0.03 µM) of 95.3% and a viability, T/C (second compound 0.1 µM, first compound 0.0949 µM) of 60.3%. It also gave a viability, T/C (second compound 0.1 µM, first compound 0.3 µM) of 52.3%, a viability, T/C (second compound 0.1 µM, first compound 0.949 µM) of 36.4% and a viability, T/C (second compound 0.1 µM, first compound 3 µM) of 12.7%. It also gave a viability, T/C (second compound 0.316 µM, first compound 0.00949 µM) of 94.8%, a viability, T/C (second compound 0.316 µM, first compound 0.03 µM) of 69% and a viability, T/C (second compound 0.316 µM, first compound 0.0949 µM) of 52.7%. The viability, T/C (second compound 0.316 µM, first compound 0.3 µM) was 35.5%, the viability, T/C (second compound 0.316 µM, first compound 0.949 µM) was 21.9% and the viability, T/C (second compound 0.316 µM, first compound 3 µM) was 11.9%. For the same molecule, the viability, T/C (second compound 1 µM, first compound 0.00949 µM) was 80%, the viability, T/C (second compound 1 µM, first compound 0.03 µM) was 63% and the viability, T/C (second compound 1 µM, first compound 0.0949 µM) was 40.3%. For the same molecule, the viability, T/C (second compound 1 µM, first compound 0.3 µM) was 24%, the viability, T/C (second compound 1 µM, first compound 0.949 µM) was 14.7% and the viability, T/C (second compound 1 µM, first compound 3 µM) was 7.55%. For the same molecule, the viability, T/C (second compound 3.16 µM, first compound 0.00949 µM) was 50.3%, the viability, T/C (second compound 3.16 µM, first compound 0.03 µM) was 63.5% and the viability, T/C (second compound 3.16 µM, first compound 0.0949 µM) was 46.2%. The viability, T/C (second compound 3.16 µM, first compound 0.3 µM) was 16.4%, the viability, T/C (second compound 3.16 µM, first compound 0.949 µM) was 11% and the viability, T/C (second compound 3.16 µM, first compound 3 µM) was 3.01%. For the same molecule, the viability, T/C (second compound 10 µM, first compound 0.00949 µM) was 56.8%, the viability, T/C (second compound 10 µM, first compound 0.03 µM) was 37.7% and the viability, T/C (second compound 10 µM, first compound 0.0949 µM) was 12.8%. It also gave a viability, T/C (second compound 10 µM, first compound 0.3 µM) of 9.46%, a viability, T/C (second compound 10 µM, first compound 0.949 µM) of 5.65% and a viability, T/C (second compound 10 µM, first compound 3 µM) of 1.13%.

— PubChem BioAssay AID1963963 (Molecular Pharmacology Branch, DTP, NCI, 2024)
